ChEMBL document CHEMBL3045160, “Betuligenol derivative with growth inhibition and antifeedant activity” (2004)

How the values were obtained:
Format in all cases: functional
Spilarctia obliqua [1] = assay: Antifeedant activity against fourth-instar larval stage of Spilarctia obliqua reared on artificial diet containing compound assessed as feeding deterrence index at 1000 ppm after 24 hr
Spilarctia obliqua [2] = assay: Antifeedant activity against fourth-instar larval stage of Spilarctia obliqua reared on artificial diet containing compound assessed as growth inhibition at 5000 ppm after 48 hr; settings: read-out: GI
Spilarctia obliqua [3] = assay: Antifeedant activity against fourth-instar larval stage of Spilarctia obliqua reared on artificial diet containing compound assessed as feeding deterrence index at 2000 ppm after 24 hr
Spilarctia obliqua [4] = assay: Antifeedant activity against fourth-instar larval stage of Spilarctia obliqua reared on artificial diet containing compound assessed as feeding deterrence index at 3000 ppm after 24 hr
Spilarctia obliqua [5] = assay: Antifeedant activity against fourth-instar larval stage of Spilarctia obliqua reared on artificial diet containing compound assessed as growth inhibition at 2000 ppm after 48 hr; settings: read-out: GI
Spilarctia obliqua [6] = assay: Antifeedant activity against fourth-instar larval stage of Spilarctia obliqua reared on artificial diet containing compound assessed as feeding deterrence index at 5000 ppm after 24 hr
Spilarctia obliqua [7] = assay: Antifeedant activity against fourth-instar larval stage of Spilarctia obliqua reared on artificial diet containing compound assessed as growth inhibition at 3000 ppm after 48 hr; settings: read-out: GI
Spilarctia obliqua [8] = assay: Antifeedant activity against fourth-instar larval stage of Spilarctia obliqua reared on artificial diet containing compound assessed as growth inhibition at 1000 ppm after 48 hr; settings: read-out: GI
Spilarctia obliqua [9] = assay: Antifeedant activity against fourth-instar larval stage of Spilarctia obliqua reared on artificial diet containing compound assessed as feeding deterrence index at 4000 ppm after 24 hr
Spilarctia obliqua [10] = assay: Antifeedant activity against fourth-instar larval stage of Spilarctia obliqua reared on artificial diet containing compound assessed as growth inhibition at 4000 ppm after 48 hr; settings: read-out: GI
Spilarctia obliqua [11] = assay: Antifeedant activity against fourth-instar larval stage of Spilarctia obliqua reared on artificial diet containing compound assessed as growth inhibition […] after 48 hr; settings: read-out: GI

Structure (SMILES) | FDI (Spilarctia obliqua [1]) | inhibition of growth at 5000 ppm (Spilarctia obliqua [2]) | FDI (Spilarctia obliqua [3]) | FDI (Spilarctia obliqua [4]) | inhibition of growth at 2000 ppm (Spilarctia obliqua [5]) | FDI (Spilarctia obliqua [6]) | inhibition of growth at 3000 ppm (Spilarctia obliqua [7]) | inhibition of growth at 1000 ppm (Spilarctia obliqua [8]) | FDI (Spilarctia obliqua [9]) | inhibition of growth at 4000 ppm (Spilarctia obliqua [10]) | inhibition of growth at 5 ppm (Spilarctia obliqua [11])
COc1ccc(CC[C@@H](C)N)cc1 | 32% | 128% | 40% | 64% | 59% | 100% | 72% | 48% | 82% | 100% | 
C/C=C(\C)C(=O)O[C@H]1C[C@@H](OC(C)=O)[C@@]2(C(=O)OC)CO[C@H]3[C@@H](O)[C@@](C)([C@]45O[C@@]4(C)[C@@H]4C[C@H]5O[C@@H]5OC=C[C@@]54O)[C@H]4[C@]1(CO[C@]4(O)C(=O)OC)[C@@H]32 [AZADIRACHTIN A] | 100% |  |  |  |  |  |  |  |  |  | 
O=C(NC(=O)c1c(F)cccc1F)Nc1ccc(Cl)cc1 [DIFLUBENZURON] |  |  |  |  |  |  |  |  |  |  | 100%
